Active and inactive are the calls of the source. The rule behind the calls is not given here.
System: CCRIS mutagenicity, Ames/micronucleus/aberration tests
Assay: CCRIS mutagenicity studies
[1] = Test System: AMES SALMONELLA TYPHIMURIUM, Strain/Indicator: TA98, Metabolic Activation: NONE, Method: PREINCUBATION
[2] = Test System: AMES SALMONELLA TYPHIMURIUM, Strain/Indicator: TA98, Metabolic Activation: NONE, Method: STANDARD PLATE
[3] = Test System: AMES SALMONELLA TYPHIMURIUM, Strain/Indicator: TA100, Metabolic Activation: NONE, Method: PREINCUBATION
[4] = Test System: AMES SALMONELLA TYPHIMURIUM, Strain/Indicator: TA100, Metabolic Activation: NONE, Method: STANDARD PLATE
[5] = Test System: AMES SALMONELLA TYPHIMURIUM, Strain/Indicator: TA98, Metabolic Activation: RAT, LIVER, S-9, KANECHLOR 500, Method: PREINCUBATION

Cc1cc(Cl)ccc1O
mutagenic call (Test System: AMES SALMONELLA TYPHIMURIUM, Strain/Indicator: TA97, Metabolic Activation: HAMSTER, LIVER, S-9, AROCLOR 1254 (10%), Method: PREINCUBATION): inactive; negative | mutagenic call (Test System: AMES SALMONELLA TYPHIMURIUM, Strain/Indicator: TA97, Metabolic Activation: HAMSTER, LIVER, S-9, AROCLOR 1254 (30%), Method: PREINCUBATION): inactive; negative | mutagenic call (Test System: AMES SALMONELLA TYPHIMURIUM, Strain/Indicator: TA97, Metabolic Activation: NONE, Method: PREINCUBATION): inactive; negative | mutagenic call (Test System: AMES SALMONELLA TYPHIMURIUM, Strain/Indicator: TA97, Metabolic Activation: NONE, Method: STANDARD PLATE): active; positive | mutagenic call (Test System: AMES SALMONELLA TYPHIMURIUM, Strain/Indicator: TA97, Metabolic Activation: RAT, LIVER, S-9, AROCLOR 1254 (10%), Method: PREINCUBATION): inactive; negative | mutagenic call (Test System: AMES SALMONELLA TYPHIMURIUM, Strain/Indicator: TA97, Metabolic Activation: RAT, LIVER, S-9, AROCLOR 1254 (30%), Method: PREINCUBATION): inactive; negative | mutagenic call (Test System: AMES SALMONELLA TYPHIMURIUM, Strain/Indicator: TA97, Metabolic Activation: RAT, LIVER, S-9, AROCLOR 1254, Method: STANDARD PLATE): active; positive | mutagenic call (Test System: AMES SALMONELLA TYPHIMURIUM, Strain/Indicator: TA98, Metabolic Activation: HAMSTER, LIVER, S-9, AROCLOR 1254 (10%), Method: PREINCUBATION): inactive; negative | mutagenic call (Test System: AMES SALMONELLA TYPHIMURIUM, Strain/Indicator: TA98, Metabolic Activation: HAMSTER, LIVER, S-9, AROCLOR 1254 (30%), Method: PREINCUBATION): inactive; negative | mutagenic call [1]: inactive; negative | mutagenic call [2]: inactive; negative | mutagenic call (Test System: AMES SALMONELLA TYPHIMURIUM, Strain/Indicator: TA98, Metabolic Activation: RAT, LIVER, S-9, AROCLOR 1254 (10%), Method: PREINCUBATION): inactive; negative | mutagenic call (Test System: AMES SALMONELLA TYPHIMURIUM, Strain/Indicator: TA98, Metabolic Activation: RAT, LIVER, S-9, AROCLOR 1254 (30%), Method: PREINCUBATION): inactive; negative | mutagenic call (Test System: AMES SALMONELLA TYPHIMURIUM, Strain/Indicator: TA98, Metabolic Activation: RAT, LIVER, S-9, AROCLOR 1254, Method: STANDARD PLATE): active; positive | mutagenic call (Test System: AMES SALMONELLA TYPHIMURIUM, Strain/Indicator: TA100, Metabolic Activation: HAMSTER, LIVER, S-9, AROCLOR 1254 (10%), Method: PREINCUBATION): inactive; negative | mutagenic call (Test System: AMES SALMONELLA TYPHIMURIUM, Strain/Indicator: TA100, Metabolic Activation: HAMSTER, LIVER, S-9, AROCLOR 1254 (30%), Method: PREINCUBATION): inactive; negative | mutagenic call [3]: inactive; negative | mutagenic call [4]: inactive; negative | mutagenic call (Test System: AMES SALMONELLA TYPHIMURIUM, Strain/Indicator: TA100, Metabolic Activation: RAT, LIVER, S-9, AROCLOR 1254 (10%), Method: PREINCUBATION): inactive; negative | mutagenic call (Test System: AMES SALMONELLA TYPHIMURIUM, Strain/Indicator: TA100, Metabolic Activation: RAT, LIVER, S-9, AROCLOR 1254 (30%), Method: PREINCUBATION): inactive; negative | mutagenic call (Test System: AMES SALMONELLA TYPHIMURIUM, Strain/Indicator: TA100, Metabolic Activation: RAT, LIVER, S-9, AROCLOR 1254, Method: STANDARD PLATE): active; positive | mutagenic call (Test System: AMES SALMONELLA TYPHIMURIUM, Strain/Indicator: TA104, Metabolic Activation: NONE, Method: STANDARD PLATE): inactive; negative | mutagenic call (Test System: AMES SALMONELLA TYPHIMURIUM, Strain/Indicator: TA104, Metabolic Activation: RAT, LIVER, S-9, AROCLOR 1254, Method: STANDARD PLATE): inactive; negative | mutagenic call (Test System: AMES SALMONELLA TYPHIMURIUM, Strain/Indicator: TA1535, Metabolic Activation: HAMSTER, LIVER, S-9, AROCLOR 1254 (10%), Method: PREINCUBATION): inactive; negative | mutagenic call (Test System: AMES SALMONELLA TYPHIMURIUM, Strain/Indicator: TA1535, Metabolic Activation: HAMSTER, LIVER, S-9, AROCLOR 1254 (30%), Method: PREINCUBATION): inactive; negative | mutagenic call (Test System: AMES SALMONELLA TYPHIMURIUM, Strain/Indicator: TA1535, Metabolic Activation: NONE, Method: PREINCUBATION): inactive; negative | mutagenic call (Test System: AMES SALMONELLA TYPHIMURIUM, Strain/Indicator: TA1535, Metabolic Activation: RAT, LIVER, S-9, AROCLOR 1254 (10%), Method: PREINCUBATION): inactive; negative | mutagenic call (Test System: AMES SALMONELLA TYPHIMURIUM, Strain/Indicator: TA1535, Metabolic Activation: RAT, LIVER, S-9, AROCLOR 1254 (30%), Method: PREINCUBATION): inactive; negative | mutagenic call (Test System: AMES SALMONELLA TYPHIMURIUM, Strain/Indicator: TA1537, Metabolic Activation: HAMSTER, LIVER, S-9, AROCLOR 1254 (30%), Method: PREINCUBATION): inactive; negative | mutagenic call (Test System: AMES SALMONELLA TYPHIMURIUM, Strain/Indicator: TA1537, Metabolic Activation: NONE, Method: PREINCUBATION): inactive; negative | mutagenic call (Test System: AMES SALMONELLA TYPHIMURIUM, Strain/Indicator: TA1537, Metabolic Activation: RAT, LIVER, S-9, AROCLOR 1254 (30%), Method: PREINCUBATION): inactive; negative

C=C(C=O)CCCC
mutagenic call [3]: active; positive | mutagenic call (Test System: AMES SALMONELLA TYPHIMURIUM, Strain/Indicator: TA100, Metabolic Activation: RAT LIVER S-9, AROCLOR 1254, Method: PREINCUBATION): active; positive

O=C1c2ccccc2CN2C(=O)c3ccccc3CN12
mutagenic call (Test System: AMES SALMONELLA TYPHIMURIUM, Strain/Indicator: TA98, Metabolic Activation: MOUSE, LIVER, S-9, PHENOBARBITAL AND 5,6-BENZOFLAVONE, Method: STANDARD PLATE): inactive; negative | mutagenic call [2]: inactive; negative | mutagenic call (Test System: AMES SALMONELLA TYPHIMURIUM, Strain/Indicator: TA100, Metabolic Activation: MOUSE, LIVER, S-9, PHENOBARBITAL AND 5,6-BENZOFLAVONE, Method: STANDARD PLATE): inactive; negative | mutagenic call [4]: inactive; negative | mutagenic call (Test System: AMES SALMONELLA TYPHIMURIUM, Strain/Indicator: TA102, Metabolic Activation: MOUSE, LIVER, S-9, PHENOBARBITAL AND 5,6-BENZOFLAVONE, Method: STANDARD PLATE): inactive; negative | mutagenic call (Test System: AMES SALMONELLA TYPHIMURIUM, Strain/Indicator: TA102, Metabolic Activation: NONE, Method: STANDARD PLATE): inactive; negative

Cc1cc(C)cc([N+](=O)[O-])c1
mutagenic call [1]: inactive; negative | mutagenic call [5]: inactive; negative | mutagenic call [3]: inactive; negative | mutagenic call (Test System: AMES SALMONELLA TYPHIMURIUM, Strain/Indicator: TA100, Metabolic Activation: RAT, LIVER, S-9, KANECHLOR 500, Method: PREINCUBATION): inactive; negative

O=C(O)C=C(C(Cl)Cl)C(Cl)Cl
mutagenic call [1]: inactive; negative | mutagenic call [3]: active; positive | mutagenic call (Test System: AMES SALMONELLA TYPHIMURIUM, Strain/Indicator: TA104, Metabolic Activation: NONE, Method: PREINCUBATION): inactive; negative

Nc1ccc(Cl)cc1[N+](=O)[O-]
mutagenic call (End Point: IN VITRO CHROMOSOMAL ABERRATIONS, Test System: CHINESE HAMSTER OVARY CELLS, Metabolic Activation: NONE): inactive; negative; precipitation occurred at 252 ug/ml | mutagenic call (End Point: IN VITRO CHROMOSOMAL ABERRATIONS, Test System: CHINESE HAMSTER OVARY CELLS, Metabolic Activation: RAT, LIVER, S-9, AROCLOR 1254): active; positive; precipitation occurred at all doses | mutagenic call (Test System: AMES SALMONELLA TYPHIMURIUM, Strain/Indicator: TA98(NR), Metabolic Activation: NONE, Method: STANDARD PLATE): inactive; negative | mutagenic call [1]: inactive; negative | mutagenic call [5]: active; positive | mutagenic call [3]: inactive; negative | mutagenic call (Test System: AMES SALMONELLA TYPHIMURIUM, Strain/Indicator: TA1538, Metabolic Activation: NONE, Method: STANDARD PLATE): active; positive | mutagenic call (Test System: AMES SALMONELLA TYPHIMURIUM, Strain/Indicator: TA1538, Metabolic Activation: RAT, LIVER, S-9, AROCLOR 1254, Method: STANDARD PLATE): active; positive | mutagenic call (Test System: AMES SALMONELLA TYPHIMURIUM, Strain/Indicator: YG1020, Metabolic Activation: NONE, Method: STANDARD PLATE): active; positive | mutagenic call (Test System: AMES SALMONELLA TYPHIMURIUM, Strain/Indicator: YG1021, Metabolic Activation: NONE, Method: STANDARD PLATE): active; positive | mutagenic call (Test System: AMES SALMONELLA TYPHIMURIUM, Strain/Indicator: YG1024, Metabolic Activation: NONE, Method: STANDARD PLATE): active; positive
